Assay results as given in ChEMBL document CHEMBL3632480, “Optimization of an indazole series of selective estrogen receptor degraders: Tumor regression in a tamoxifen-resistant breast cancer xenograft” (Bioorg Med Chem Lett, 2015).
Activity calls are given as the source filed them. No cut-off for these calls is given here.

Columns and labels:
MCF7 [1] = assay: Decrease in estrogen receptor alpha level in human MCF7 cells after 4 hrs by in-cell western assay; type: functional, cell-based; details: MCF7, 4 h
MCF7 [2] = assay: Decrease in estrogen receptor alpha level in human MCF7 cells 2 to 10 uM after 4 hrs by in-cell western assay; type: functional; details: MCF7, 4 h
MCF7 [3] = assay: Cytotoxicity against human MCF7 cells assessed as decrease in cell viability after 5 days by celltiterGlo assay; type: functional, cell-based; details: MCF7, 120 h
[4] = Fraction unbound in CD-1 mouse plasma by equilibrium dialysis; type: ADME, cell-free
MCF7 [5] = assay: Antitumor activity against human MCF7 cells xenografted in tamoxifen-resistant nu/nu mouse model implanted with 17beta-estradiol pellets assessed as tumor regression at 30 mg/kg qd for 4 weeks; type: functional, organism-based
[6] = AUC in CD-1 mouse at 10 mg/kg, po; type: ADME, organism-based; details: in vivo
MCF7 [7] = assay: Decrease in estrogen receptor alpha level in human MCF7 cells after 4 hrs by in-cell western assay relative to fulvestrant; type: functional; details: MCF7, 4 h
Rattus norvegicus = assay: Decrease in uterine wet weight of CD-IGS rat at 1 mg/kg, po qd followed 15 mins later administration of 0.1 mg/kg, po 17alpha-ethynylestradiol for 3 consecutive days; type: functional

| EC50 (MCF7 [1]) [nM] | fraction unbound [4] | AUC [6] [ng·h/mL] | Structure (SMILES) | Emax (MCF7 [2]) [%] | IC50 (MCF7 [3]) [nM] | Activity (MCF7 [5]) | Emax (MCF7 [7]) [%] | inhibition (INH) (Rattus norvegicus) [%] |
| --- | --- | --- | --- | --- | --- | --- | --- | --- |
| 54 | – | – | CC/C(=C(/c1ccc(/C=C/C(=O)O)cc1)c1cc2cn[nH]c2cc1Cl)c1ccccc1 | 87 | 137 | – | – | – |
| 64 | – | – | CC/C(=C(/c1ccc(/C=C/C(=O)O)cc1)c1cc2cn[nH]c2cc1F)c1ccccc1 | 96 | 47 | – | – | – |
| 384 | – | – | CC/C(=C(/c1ccc(/C=C/C(=O)O)cc1)c1cc2cn[nH]c2cn1)c1ccccc1 | 88 | 442 | – | – | – |
| 0.4 | 0.014 | 14600 | N#Cc1cc(C(F)(F)F)ccc1/C(=C(\c1ccc(/C=C/C(=O)O)cc1)c1ccc2[nH]nc(F)c2c1)C1CCC1 | – | 1.2 | Active | 94 | 75 |
| 102 | – | – | CC/C(=C(/c1ccc(/C=C/C(=O)O)cc1)c1ccc2[nH]nc(Cl)c2c1)c1ccccc1 | 89 | 284 | – | – | – |
| 0.3 | 0.035 | 200 | CS(=O)(=O)c1cc(Cl)ccc1/C(=C(\c1ccc(/C=C/C(=O)O)cc1)c1ccc2[nH]nc(F)c2c1)C1CCC1 | – | 0.3 | – | 91 | 94 |
| 0.3 | 0.004 | 2000 | COc1ccc(/C(=C(\c2ccc(/C=C/C(=O)O)cc2)c2ccc3[nH]nc(F)c3c2)C2CCC2)c(C#N)c1 | – | 0.5 | – | 94 | 82 |
| 0.3 | 0.012 | 1800 | O=C(O)/C=C/c1ccc(/C(=C(\c2ccncc2Cl)C2CCC2)c2ccc3[nH]nc(F)c3c2)cc1 | – | 0.8 | – | 90 | 74 |
| 0.3 | 0.032 | 900 | O=C(O)/C=C/c1ccc(/C(=C(\c2ncccc2Cl)C2CCC2)c2ccc3[nH]nc(F)c3c2)cc1 | – | 1.2 | – | 90 | 83 |
| 0.3 | 0.006 | 7800 | N#Cc1ccc(/C(=C(\c2ccc(/C=C/C(=O)O)cc2)c2ccc3[nH]nc(F)c3c2)C2CCC2)c(Cl)c1 | – | 0.7 | – | 93 | 85 |
| 0.4 | 0.003 | 14600 | O=C(O)/C=C/c1ccc(/C(=C(\c2ccccc2)C2CCC2)c2ccc3[nH]nc(F)c3c2)cc1 | – | 1.4 | – | 90 | 81 |
| 272 | – | – | CC/C(=C(/c1ccc(/C=C/C(=O)O)cc1)c1cc2cn[nH]c2cc1C)c1ccccc1 | 84 | 468 | – | – | – |
| 353 | – | – | CC/C(=C(/c1ccc(/C=C/C(=O)O)cc1)c1ccc2[nH]nc(C)c2c1)c1ccccc1 | 86 | > 1000 | – | – | – |
| 0.3 | 0.007 | 3700 | N#Cc1cc(Cl)ccc1/C(=C(\c1ccc(/C=C/C(=O)O)cc1)c1ccc2[nH]nc(F)c2c1)C1CCC1 | – | 0.7 | – | 94 | 87 |
| 0.8 | 0.001 | 20500 | COc1ccc(/C(=C(\c2ccc(/C=C/C(=O)O)cc2)c2ccc3[nH]nc(F)c3c2)C2CCC2)c(Cl)c1 | – | 2.4 | – | 93 | 90 |
| 116 | – | – | CC/C(=C(/c1ccc(/C=C/C(=O)O)cc1)c1cnc2[nH]ncc2c1)c1ccccc1 | 93 | 302 | – | – | – |
| 1.3 | 0.014 | 24300 | O=C(O)/C=C/c1ccc(/C(=C(\c2ncc(C(F)(F)F)cc2Cl)C2CCC2)c2ccc3[nH]nc(F)c3c2)cc1 | – | 4.4 | Active | 94 | 77 |
